{"source": "patent US8304443B2", "about": "“Indazole derivatives” (Asahi Kasei Pharma Corporation, priority 2008, dated 2012)", "key": {"[1]": {"target": "T1, human α1A adrenergic receptor (Homo sapiens, UniProt P35348)", "T1 construct": "expressed in transfected cells; host or cells: HEK293 cells, pcDNA3.1(−), geneticin-selected", "T1 sequence (P35348 1-466)": "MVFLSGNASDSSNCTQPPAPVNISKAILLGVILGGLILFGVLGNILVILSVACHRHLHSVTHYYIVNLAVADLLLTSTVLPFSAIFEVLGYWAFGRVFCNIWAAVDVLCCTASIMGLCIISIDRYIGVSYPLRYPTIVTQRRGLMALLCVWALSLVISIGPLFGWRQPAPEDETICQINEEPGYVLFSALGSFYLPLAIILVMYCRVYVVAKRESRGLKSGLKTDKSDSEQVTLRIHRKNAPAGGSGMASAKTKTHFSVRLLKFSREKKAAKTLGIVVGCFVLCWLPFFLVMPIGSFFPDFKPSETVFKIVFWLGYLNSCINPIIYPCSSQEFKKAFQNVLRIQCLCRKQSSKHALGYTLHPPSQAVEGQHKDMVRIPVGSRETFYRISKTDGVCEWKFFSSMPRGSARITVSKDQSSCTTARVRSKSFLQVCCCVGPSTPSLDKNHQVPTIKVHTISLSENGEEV", "assay": "Test example 4: human α1A adrenergic receptor agonist activity (Ca flux, Fura-2)", "type": "cell-based", "settings": "Test example 4, maximum response to norephinephrine taken as 100%; for Emax: read-out: α1A receptor I.A.", "method": "Human α1A adrenergic receptor agonist activity is determined by using HEK293 cells transfected with pcDNA3.1(−) (Invitrogen) to which human α1A gene has been inserted. These cells are cultured in a DMEM medium containing 10% fetal bovine serum, 400 μg/mL geneticin (Gibco BRL), 100 U/ml penicillin and 100 μg/ml streptomycin. […] After carrying out the loading for 30 minutes in a CO2 incubator, excess Fura-2AM is removed by washing the cells twice with the assay buffer. The cells obtained after the centrifuge is prepared to 5×10^6 cells/ml by using the assay buffer, and aliquoted into a 96-well UV plate (manufactured by Corning Inc.) to give a cell plate (80 μl/well). […] After the measurement for about 30 seconds, 20 μl of the test sample from the sample plate is added to the cell plate and the measurement is continued for another 270 seconds. Ca flux caused by the test compound is obtained from the peak height difference between the maximum value of fluorescence intensity ratio at 340 nm and 380 nm after the addition of the test compound and the fluorescence intensity ratio before the addition of the test compound. Maximum response to norephinephrine as a positive control is taken as 100%, and the maximum response ratio of each test compound is obtained as Intrinsic Activity [I.A. (%)]."}, "[2]": {"target": "T2, human β3 adrenergic receptor (Homo sapiens, UniProt P13945)", "T2 construct": "used as a probe to obtain the full length human β3 gene from a human genomic library (Clonetech); expressed in transfected cells; host or cells: CHO (Chinese hamster ovary) cells, pcDNA3, geneticin-selected", "T2 sequence (P13945 whole entry)": "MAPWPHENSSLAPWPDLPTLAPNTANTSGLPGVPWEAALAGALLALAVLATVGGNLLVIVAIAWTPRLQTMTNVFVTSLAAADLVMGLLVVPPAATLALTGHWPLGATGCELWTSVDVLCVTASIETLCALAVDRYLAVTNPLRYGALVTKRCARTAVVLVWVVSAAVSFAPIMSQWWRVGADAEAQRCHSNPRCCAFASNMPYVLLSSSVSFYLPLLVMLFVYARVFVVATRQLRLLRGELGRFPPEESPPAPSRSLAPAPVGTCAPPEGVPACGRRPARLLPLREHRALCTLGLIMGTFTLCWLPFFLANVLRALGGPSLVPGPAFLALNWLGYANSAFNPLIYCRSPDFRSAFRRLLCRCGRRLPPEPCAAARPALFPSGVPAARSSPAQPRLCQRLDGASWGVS", "assay": "Test example 1-B: human β3 adrenergic receptor agonist activity (cAMP-Screen, 96-well)", "type": "cell-based", "settings": "for Emax: 0.5 h, read-out: β3 receptor I.A.; for EC50: CHO cells with human β3 gene, cAMP", "method": "Human β3 adrenergic receptor agonist activity is determined using CHO (Chinese hamster ovary) cells transfected with pcDNA3 (Invitrogen) to which human β3 gene has been inserted. […] This human β3 cDNA fragment is used as a probe to obtain the full length human β3 gene from a human genomic library (Clonetech). The above cells are cultured in a Ham's F-12 medium containing 10% fetal bovine serum and 400 μg/mL geneticin (Invitrogen). After seeding these cells into a 96-well plate (2×10^4 cells/well) and culturing them for about 20 hours, they are allowed to stand in a serum-free Ham's F-12 medium (80 μL) for 15 minutes. The test compound is first dissolved in DMSO, serially diluted with Ham's F-12 comprising 100 mmol/L HEPES and 1 mmol/L isobutylmethylxanthine, and then 20 μL of the solution is added to the cells. After the cells are cultured for 30 minutes, the medium is removed, followed by addition of assay/lysis buffer (0.1 ml) included in cAMP-Screen Kit (manufactured by Applied Biosystems). The cells are incubated for 30 minutes at 37° C. The resulting cell lysate is determined to cAMP quantitation by using cAMP-Screen kit described above."}, "[3]": {"target": "T3, human β1 adrenergic receptor (Homo sapiens, UniProt P08588)", "T3 construct": "expressed in transfected cells; host or cells: CHO (Chinese hamster ovary) cells, pcDNA3", "T3 sequence (P08588 whole entry)": "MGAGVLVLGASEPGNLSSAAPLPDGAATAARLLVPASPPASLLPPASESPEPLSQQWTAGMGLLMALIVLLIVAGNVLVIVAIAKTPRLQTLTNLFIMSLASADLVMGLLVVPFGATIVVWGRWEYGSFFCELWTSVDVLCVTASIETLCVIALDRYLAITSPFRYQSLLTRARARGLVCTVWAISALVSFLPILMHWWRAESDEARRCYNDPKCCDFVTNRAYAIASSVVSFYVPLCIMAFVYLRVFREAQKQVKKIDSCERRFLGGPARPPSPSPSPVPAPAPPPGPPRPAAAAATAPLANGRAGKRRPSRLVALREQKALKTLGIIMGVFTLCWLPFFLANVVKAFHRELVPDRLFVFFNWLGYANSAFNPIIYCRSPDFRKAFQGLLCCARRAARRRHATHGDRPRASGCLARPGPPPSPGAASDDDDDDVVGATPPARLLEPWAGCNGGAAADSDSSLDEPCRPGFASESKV", "assay": "Test example 2-B: human β1 adrenergic receptor agonist activity", "type": "cell-based", "settings": "0.5 h; read-out: β1 receptor I.A."}, "[4]": {"target": "T4, human β2 adrenergic receptor (Homo sapiens, UniProt P07550)", "T4 construct": "expressed in transfected cells; host or cells: CHO (Chinese hamster ovary) cells, pcDNA3", "T4 sequence (P07550 whole entry)": "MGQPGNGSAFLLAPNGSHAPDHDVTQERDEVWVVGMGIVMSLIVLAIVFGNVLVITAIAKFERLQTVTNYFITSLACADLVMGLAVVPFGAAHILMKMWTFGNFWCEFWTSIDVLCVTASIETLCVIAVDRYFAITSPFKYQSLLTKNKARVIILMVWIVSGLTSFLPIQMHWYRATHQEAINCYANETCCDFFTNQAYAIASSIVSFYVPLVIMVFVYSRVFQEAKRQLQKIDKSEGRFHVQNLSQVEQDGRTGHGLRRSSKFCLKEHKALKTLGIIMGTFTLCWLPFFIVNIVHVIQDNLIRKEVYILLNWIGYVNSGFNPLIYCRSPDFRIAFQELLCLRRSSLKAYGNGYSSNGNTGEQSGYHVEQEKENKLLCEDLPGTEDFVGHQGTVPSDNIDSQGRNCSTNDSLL", "assay": "Test example 3-B: human β2 adrenergic receptor agonist activity", "type": "cell-based", "settings": "read-out: β2 receptor I.A."}, "[5]": {"test_system": "rat under pentobarbital anesthesia", "assay": "Test example 9: effect on blood pressure and heart rate of a rat under pentobarbital anesthesia", "type": "in vivo", "settings": "male SD rat, 3 mg/kg intravenous bolus; greatest change of mean blood pressure relative to before administration; mean ± standard deviation", "method": "After measuring blood pressure and heart rate of a rat under pentobarbital anesthesia, an effect of intravenous bolus administration of a test compound on blood pressure and heart rate can be determined. To a male SD rat (Japan SLC Inc.), sodium pentobarbital (Tokyo Chemical Industry Co., Ltd.) is intraperitoneally administered for induction of anesthesia (50 mg/kg). As maintenance anesthetics, sodium pentobarbital is subcutaneously administered (25 mg/kg). Left femoral vein is exposed and stripped, and then a polyethylene tube SP10 (connected to a three-way stopcock via ¼ vein needle) which has been filled with physiological saline is inserted and left in the vein.\nLeft medial femoral region is cut to expose and strip the femoral artery, and then a polyethylene tube (SP31, connected to a three-way stopcock via 22 G injection needle by TERUMO Corporation) which has been filled with heparin physiological saline is inserted and connected to a pressure transducer. Blood pressure is measured from the pressure transducer by using a modified pressure amplifier (AP-641 G, Nihon Kohden Corporation). Heart rate is measured by using the Heart rate Counter (AT-601 g, Nihon Kohden Corporation) while having the pulse wave of the blood pressure as a trigger. The blood pressure, mean blood pressure and heart rate are transmitted to the data recorder for recordation. In addition, the mean blood pressure is recorded using a modified pressure amplifier (AP-641 G) according to the equation of {diastolic blood pressure+(systolic blood pressure−diastolic blood pressure)/3}.\nBlood pressure and heart rate measurement is started, and after confirming that each value remains almost constant, the test compound (3 mg/kg) is administered to the left femoral vein for 30 seconds. Specifically, the test compound with 3 mg/mL concentration is bolus administered at the administration dose of 1 mL/kg. Relative value (%) at each time point compared to the mean blood pressure and the heart rate before the administration is obtained for each individual. […]"}, "[6]": {"target": "T2, human β3 adrenergic receptor", "assay": "Test example 1-A: human β3 adrenergic receptor agonist activity (cAMP EIA, 24-well)", "type": "cell-based", "settings": "Table 3, maximum response to isoproterenol taken as 100%", "method": "Human β3 adrenergic receptor agonist activity is determined using CHO (Chinese hamster ovary) cells transfected with pcDNA3 (Invitrogen) to which human β3 gene has been inserted. […] This human β3 cDNA fragment is used as a probe to obtain the full length human β3 gene from a human genomic library (Clonetech). The above cells are cultured in a Ham's F-12 medium containing 10% fetal bovine serum and 400 μg/mL geneticin (Invitrogen)."}, "[7]": {"test_system": "urinary bladder smooth muscle isolated from common marmoset", "assay": "Test example 7: relaxant activity on urinary bladder smooth muscle isolated from common marmoset", "settings": "strips contracted by 40 mmol/L KCl, papaverine 10^−4 mol/L relaxation = 100%", "procedure": "Specifically, a common marmoset (CLEA Japan, Inc.) is bled to exsanguinated death, and then the urinary bladder is taken out of the marmoset via laparotomy. […] A resting tension of 1 g is applied to the strips, which is then equilibrated for more than 30 minutes. […] The final concentration is 10^−9, 10^−8, 10^−7, 10^−8, 10^−5 and 10^−4 mol/L. Upon the completion of the relaxation response to the test compound at the highest concentration, papaverine with final concentration of 10^−4 mol/L is added and the maximum relaxation response is obtained for each strip. This relaxation response is taken as 100%, and the relaxation ratio (%) is obtained for the test compound at the concentrations of 10^−5 and 10^−4 mol/L."}}, "note": "Read-outs that look alike come from different tables or passages of the source."}
{"smiles": "COC(C)c1n[nH]c2cc(OCCNC[C@H](O)c3cccc(NS(C)(=O)=O)c3)ccc12", "note": "(stereo partly drawn) [Example 3, N-(3-((R)-1-Hydroxy-2-(2-(3-(1-methoxyethyl)-indazol-6-yloxy)ethylamino)ethyl)phenyl)methanesulfonamide]", "values": [{"measurement": "Emax", "setting": "[1]; Table 4", "result": 15, "unit": "%"}, {"measurement": "Emax", "setting": "[2]", "result": 60, "unit": "%"}, {"measurement": "EC50", "setting": "[2]; Table 4, Test example 1-B", "result": 45, "unit": "nM"}, {"measurement": "Emax", "setting": "[3]", "result": 4, "unit": "%"}, {"measurement": "Emax", "setting": "[4]", "result": 5, "unit": "%"}, {"measurement": "increase in MBP (%)", "setting": "[5]", "result": "2.3 ± 0.9", "unit": "%"}]}
{"smiles": "CS(=O)(=O)Nc1cc([C@@H](O)CNCCOc2ccc3c(C4CC4)n[nH]c3c2)ccc1F", "note": "[Example 4, (R)—N-(5-(2-(2-(3-Cyclopropylindazol-6-yloxy)ethylamino)-1-hydroxyethyl)-2-fluorophenyl)methanesulfonamide]", "values": [{"measurement": "Emax", "setting": "[1]; Table 4", "result": 0, "unit": "%"}, {"measurement": "Emax", "setting": "[2]", "result": 52, "unit": "%"}, {"measurement": "EC50", "setting": "[2]; Table 4, Test example 1-B", "result": 24, "unit": "nM"}, {"measurement": "Emax", "setting": "[3]", "result": 9, "unit": "%"}, {"measurement": "Emax", "setting": "[4]", "result": 8, "unit": "%"}]}
{"smiles": "CS(=O)(=O)Nc1cc([C@@H](O)CNCCOc2ccc3c(C4CC4)n[nH]c3c2)ccc1Cl", "note": "[Example 5, (R)—N-(2-Chloro-5-(2-(2-(3-cyclopropylindazol-6-yloxy)ethylamino)-1-hydroxyethyl)phenyl)methanesulfonamide]", "values": [{"measurement": "Emax", "setting": "[1]; Table 4", "result": 0, "unit": "%"}, {"measurement": "Emax", "setting": "[2]", "result": 59, "unit": "%"}, {"measurement": "EC50", "setting": "[2]; Table 4, Test example 1-B", "result": 19, "unit": "nM"}, {"measurement": "Emax", "setting": "[3]", "result": 23, "unit": "%"}, {"measurement": "Emax", "setting": "[4]", "result": 9, "unit": "%"}]}
{"smiles": "CS(=O)(=O)Nc1cc([C@@H](O)CNCCOc2ccc3c(C4CCC4)n[nH]c3c2)ccc1F", "note": "[Example 6, (R)—N-(5-(2-(2-(3-Cyclobutylindazol-6-yloxy)ethylamino)-1-hydroxyethyl)-2-fluorophenyl)methanesulfonamide]", "values": [{"measurement": "Emax", "setting": "[1]; Table 4", "result": 0, "unit": "%"}, {"measurement": "Emax", "setting": "[2]", "result": 41, "unit": "%"}, {"measurement": "EC50", "setting": "[2]; Table 4, Test example 1-B", "result": 54, "unit": "nM"}]}
{"smiles": "CS(=O)(=O)Nc1cc([C@@H](O)CNCCOc2ccc3c(OC(F)F)n[nH]c3c2)ccc1F", "note": "[Example 7, (R)—N-(5-(2-(2-(3-(Difluoromethoxy)-indazol-6-yloxy)ethylamino)-1-hydroxyethyl)-2-fluorophenyl)methanesulfonamide]", "values": [{"measurement": "Emax", "setting": "[1]; Table 4", "result": 5, "unit": "%"}, {"measurement": "Emax", "setting": "[2]", "result": 51, "unit": "%"}, {"measurement": "EC50", "setting": "[2]; Table 4, Test example 1-B", "result": 584, "unit": "nM"}]}
{"smiles": "CS(=O)(=O)Nc1cc([C@@H](O)CNCCOc2ccc3c(C4CCC4)n[nH]c3c2)ccc1Cl", "note": "[Example 8, (R)—N-(2-Chloro-5-(2-(2-(3-cyclobutylindazol-6-yloxy)ethylamino)-1-hydroxyethyl)phenyl)methanesulfonamide]", "values": [{"measurement": "Emax", "setting": "[1]; Table 4", "result": 0, "unit": "%"}, {"measurement": "Emax", "setting": "[2]", "result": 70, "unit": "%"}, {"measurement": "EC50", "setting": "[2]; Table 4, Test example 1-B", "result": 29, "unit": "nM"}, {"measurement": "Emax", "setting": "[3]", "result": 34, "unit": "%"}, {"measurement": "Emax", "setting": "[4]", "result": 10, "unit": "%"}]}
{"smiles": "CS(=O)(=O)Nc1cc([C@@H](O)CNCCOc2ccc3c(OC(F)F)n[nH]c3c2)ccc1Cl", "note": "[Example 9, (R)—N-(2-Chloro-5-(2-(2-(3-(difluoromethoxy)-indazol-6-yloxy)ethylamino)-1-hydroxyethyl)phenyl)methanesulfonamide]", "values": [{"measurement": "Emax", "setting": "[1]; Table 4", "result": 5, "unit": "%"}, {"measurement": "Emax", "setting": "[2]", "result": 51, "unit": "%"}, {"measurement": "EC50", "setting": "[2]; Table 4, Test example 1-B", "result": 56, "unit": "nM"}, {"measurement": "Emax", "setting": "[3]", "result": 30, "unit": "%"}, {"measurement": "Emax", "setting": "[4]", "result": 1, "unit": "%"}]}
{"smiles": "NC[C@H](O)c1ccc(O)c(O)c1", "note": "[Norepinephrine, reference compound]", "values": [{"measurement": "Emax", "setting": "[1]; Table 3", "result": 100, "unit": "%"}, {"measurement": "α1A receptor I.A.", "setting": "[1]; Table 4", "result": 100, "unit": "%"}]}
{"smiles": "CC(C)NCC(O)c1ccc(O)c(O)c1", "note": "(centres unmarked) [isoproterenol, reference compound]", "values": [{"measurement": "β3 receptor I.A.", "setting": "[6]", "result": 100, "unit": "%"}, {"measurement": "β3 receptor I.A.", "setting": "[2]; Table 4, Test example 1-B, maximum response to isoproterenol taken as 100%", "result": 100, "unit": "%"}, {"measurement": "relaxant activity (%) 10^−4 M", "setting": "[7]; 10^−4 M", "result": 66.2, "unit": "%"}, {"measurement": "relaxant activity (%) 10^−5 M", "setting": "[7]; 10^−5 M", "result": 60.9, "unit": "%"}]}
